Test results from ChEMBL document CHEMBL1135599, “Synthesis and evaluation of potent and selective beta(3) adrenergic receptor agonists containing acylsulfonamide, sulfonylsulfonamide, and sulfonylurea carboxylic acid isosteres” (J Med Chem, 2002).

How the values were obtained:
[1] = Selectivity ratio (Beta-2EC50/ Beta-3EC50); type: functional
[2] = molecular target: T1, Beta-1 adrenergic receptor (Homo sapiens, UniProt P08588); assay: (§1) concentration-response expressed as a percent of the maximal response to R-(-) isoproterenol (ISO).Emax is the fitted maximal value of the concentration; type: functional
Target sequence in this assay (P08588 whole entry, looked up): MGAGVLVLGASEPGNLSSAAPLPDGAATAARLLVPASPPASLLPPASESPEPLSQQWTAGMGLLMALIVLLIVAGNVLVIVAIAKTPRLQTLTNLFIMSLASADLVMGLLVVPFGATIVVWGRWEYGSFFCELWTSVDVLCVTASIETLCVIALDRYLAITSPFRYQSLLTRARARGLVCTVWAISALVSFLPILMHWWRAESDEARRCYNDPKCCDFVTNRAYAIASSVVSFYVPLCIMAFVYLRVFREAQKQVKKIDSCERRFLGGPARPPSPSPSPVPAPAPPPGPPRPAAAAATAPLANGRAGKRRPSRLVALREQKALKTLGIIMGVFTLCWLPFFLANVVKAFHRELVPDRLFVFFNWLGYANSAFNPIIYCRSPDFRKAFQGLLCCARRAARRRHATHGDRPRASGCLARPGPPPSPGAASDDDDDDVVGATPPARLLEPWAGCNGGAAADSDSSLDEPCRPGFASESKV

[3] = molecular target: T2, Beta-3 adrenergic receptor (Homo sapiens, UniProt P13945); assay: as §1; type: functional
Target sequence in this assay (P13945 whole entry, looked up): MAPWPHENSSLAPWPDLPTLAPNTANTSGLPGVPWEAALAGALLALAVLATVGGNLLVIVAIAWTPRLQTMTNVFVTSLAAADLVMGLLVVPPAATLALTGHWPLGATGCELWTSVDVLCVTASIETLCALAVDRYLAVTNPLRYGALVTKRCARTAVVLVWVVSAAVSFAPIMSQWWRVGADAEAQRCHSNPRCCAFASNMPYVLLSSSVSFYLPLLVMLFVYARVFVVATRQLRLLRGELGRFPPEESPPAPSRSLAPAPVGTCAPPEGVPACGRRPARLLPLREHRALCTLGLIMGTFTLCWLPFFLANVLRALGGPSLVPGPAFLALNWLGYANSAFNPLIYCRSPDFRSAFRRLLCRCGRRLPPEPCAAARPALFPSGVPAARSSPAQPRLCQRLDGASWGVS

[4] = molecular target: T3, Beta-2 adrenergic receptor (Homo sapiens, UniProt P07550); assay: as §1; type: functional
Target sequence in this assay (P07550 whole entry, looked up): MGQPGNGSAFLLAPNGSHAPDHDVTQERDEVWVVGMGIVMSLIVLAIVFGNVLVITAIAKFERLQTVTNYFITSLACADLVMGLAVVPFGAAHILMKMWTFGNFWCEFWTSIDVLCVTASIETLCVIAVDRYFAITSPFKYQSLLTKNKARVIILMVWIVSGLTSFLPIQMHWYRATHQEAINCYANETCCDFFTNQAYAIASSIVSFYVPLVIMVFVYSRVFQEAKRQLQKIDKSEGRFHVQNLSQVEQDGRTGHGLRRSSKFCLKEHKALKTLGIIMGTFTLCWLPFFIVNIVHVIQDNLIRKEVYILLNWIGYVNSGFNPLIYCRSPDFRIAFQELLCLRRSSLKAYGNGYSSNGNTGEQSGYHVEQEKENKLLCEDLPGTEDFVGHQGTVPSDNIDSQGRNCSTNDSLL

[5] = Selectivity ratio (Beta-1EC50/ Beta-3EC50); type: functional
[6] = molecular target: T2, Beta-3 adrenergic receptor; assay: Ability to cause cAMP accumulation in CHO cells expressing human beta-3 AR expressed as the negative logarithm of the molar drug concentration; type: functional, cell-based
Target sequence in this assay (P13945 whole entry): as the sequence (P13945 whole entry, looked up) above

[7] = molecular target: T3, Beta-2 adrenergic receptor; assay: Ability to cause cAMP accumulation in CHO cells expressing human beta-2 AR expressed as the negative logarithm of the molar drug concentration; type: functional, cell-based
Target sequence in this assay (P07550 whole entry): as the sequence (P07550 whole entry, looked up) above

[8] = molecular target: T1, Beta-1 adrenergic receptor; assay: Ability to cause cAMP accumulation in CHO cells expressing human beta-1 AR expressed as the negative logarithm of the molar drug concentration; type: functional, cell-based
Target sequence in this assay (P08588 whole entry): as the sequence (P08588 whole entry, looked up) above

[9] = plasma concentration at the 2.5 hour time; type: ADME; details: read-out: C
[10] = molecular target: T1, Beta-1 adrenergic receptor; assay: Receptor binding assay(Beta-1 adrenergic receptor) carried out with membranes prepared from human recombinant Sf9 cells expressing the cloned human receptor in the presence of [125I]iodocyanopindolol; type: cell membranes
Target sequence in this assay (P08588 whole entry): as the sequence (P08588 whole entry, looked up) above

[11] = molecular target: T1, Beta-1 adrenergic receptor; assay: Concentration that causes 50% inhibition of human beta 1 adrenergic receptor (AR), expressed in CHO cells.; type: functional, cell-based
Target sequence in this assay (P08588 whole entry): as the sequence (P08588 whole entry, looked up) above

[12] = Area under curve (AUC) value in dogs after an intravenous dose of 0.2 mg/Kg in 0.025 M aqueous methanesulfonic acid solution with 5% mannitol; type: ADME; details: dog, in vivo
Canis familiaris = assay: Plasma clearance in dogs after an intravenous dose of 0.2 mg/Kg; type: ADME, organism-based, Canis lupus familiaris; details: dog, in vivo
[13] = molecular target: T2, Beta-3 adrenergic receptor
Target sequence in this assay (P13945 whole entry): as the sequence (P13945 whole entry, looked up) above

[14] = molecular target: T3, Beta-2 adrenergic receptor; assay: Receptor binding assay(Beta-2 adrenergic receptor) carried out with membranes prepared from human recombinant Sf9 cells expressing the cloned human receptor in the presence of [125I]iodocyanopindolol; type: cell membranes
Target sequence in this assay (P07550 whole entry): as the sequence (P07550 whole entry, looked up) above

[15] = molecular target: T3, Beta-2 adrenergic receptor; assay: Concentration that causes 50% inhibition of human beta 2 adrenergic receptor (AR), expressed in CHO cells.; type: functional, cell-based
Target sequence in this assay (P07550 whole entry): as the sequence (P07550 whole entry, looked up) above

[16] = Half life (t1/2) value in dogs after an intravenous dose of 0.2 mg/Kg; type: ADME, organism-based, Canis lupus familiaris; details: dog, in vivo
[17] = Volume distribution in dogs after an intravenous dose of 0.2 mg/Kg; type: ADME, organism-based; details: dog, in vivo
[18] = molecular target: T3, Beta-2 adrenergic receptor; assay: concentration-response expressed as a percent of the maximal response to R-(-) isoprenaline (ISO).Emax is the fitted maximal value of the concentration; type: functional
Target sequence in this assay (P07550 whole entry, looked up): as above

[19] = Area under curve (AUC) value in dogs after an intravenous dose of 0.2 mg/Kg in 0.025 M aqueous methanesulfonic acid solution with 5% mannitol at a concentration of 0.2; type: ADME, organism-based, Canis lupus familiaris; details: dog, in vivo
[20] = molecular target: T2, Beta-3 adrenergic receptor; assay: Activity against human beta 3 adrenergic receptor (AR), expressed in CHO cells.; type: functional, cell-based
Target sequence in this assay (P13945 whole entry): as the sequence (P13945 whole entry, looked up) above

[21] = plasma concentration at the 2.5 hour time; significant; type: ADME
[22] = molecular target: T3, Beta-2 adrenergic receptor; assay: concentration-response expressed as a percent of the maximal response to R-(-) isoprenaline (ISO); type: functional
Target sequence in this assay (P07550 whole entry, looked up): as the sequence (P07550 whole entry, looked up) above

[23] = molecular target: T1, Beta-1 adrenergic receptor; assay: (§2) concentration-response expressed as a percent of the maximal response to R-(-) isoproterenol (ISO); type: functional
Target sequence in this assay (P08588 whole entry, looked up): as the sequence (P08588 whole entry, looked up) above

[24] = molecular target: T2, Beta-3 adrenergic receptor; assay: as §2; type: functional
Target sequence in this assay (P13945 whole entry, looked up): as the sequence (P13945 whole entry, looked up) above

[25] = molecular target: T3, Beta-2 adrenergic receptor; assay: Activity against human beta 2 adrenergic receptor (AR), expressed in CHO cells; type: functional, cell-based
Target sequence in this assay (P07550 whole entry): as the sequence (P07550 whole entry, looked up) above

| Structure (SMILES) | Ratio [1] | Emax [2] [%] | Emax [3] [%] | Emax [4] [%] | Ratio [5] | EC50 [7] [nM] | EC50 [8] [nM] | EC50 [13] [nM] | also measured |
| --- | --- | --- | --- | --- | --- | --- | --- | --- | --- |
| Cc1ccc(CNC(=O)Cc2ccc(NC[C@@H](C)NC[C@H](O)c3cccc(Cl)c3)cc2)cc1 | 0.02 | 12 | 126 | 40 | 0.4 | 1 | 25.1 |  | EC50 [6]: 63.1 nM |
| Cc1ccc(S(=O)(=O)NC(=O)Cc2cccc(NC[C@@H](C)NC[C@H](O)c3cccc(Cl)c3)c2)cc1 | > 158 | 8 | 98 | 16 | > 794 |  |  | 6.31 | concentration at 2.5 h [9]: 10.3 ng/mL; IC50 [10]: 5010 nM; EC50 [11]: > 5010 nM; AUC [12]: 279 ng·h/mL; Clp (Canis familiaris): 11.9 mL/min/kg; IC50 [14]: 15800 nM; EC50 [15]: > 1000 nM; half-life [16]: 1.7 h; Vd [17]: 0.409 L/kg |
| C[C@H](CNc1ccc(CC(=O)O)cc1)NC[C@H](O)c1cccc(Cl)c1 | 3.1 |  |  |  | 5 | 50.1 | 79.4 | 15.8 | Emax [18]: 90%; IC50 [10]: 1000 nM; IC50 [14]: 794 nM |
| C[C@H](CNc1ccc(CC(=O)NS(=O)(=O)c2ccccc2)cc1)NC[C@H](O)c1cccc(Cl)c1 | 40 | 22 | 110 | 59 | 1000 | 31.6 | 794 | 0.794 |  |
| CC(=O)NCc1ccc(NC[C@@H](C)NC[C@H](O)c2cccc(Cl)c2)cc1 | 0.3 | 15 | 123 | 75 | 0.6 | 3.16 | 7.94 | 12.6 |  |
| C[C@H](CNc1ccc(CCS(=O)(=O)NC(=O)c2ccccc2)cc1)NC[C@H](O)c1cccc(Cl)c1 | 32 | 27 | 100 | 52 | 79 |  |  |  | EC50 [11]: 794 nM; AUC [12]: 383 ng·h/mL; EC50 [6]: 10 nM; Clp (Canis familiaris): 8.7 mL/min/kg; EC50 [15]: 316 nM; half-life [16]: 1.2 h; Vd [17]: 0.478 L/kg |
| C[C@H](CNc1cccc(CNC(=O)NS(=O)(=O)c2ccccc2)c1)NC[C@H](O)c1cccc(Cl)c1 | 16 | 15 | 105 | 23 | 25 |  |  |  | EC50 [11]: 398 nM; EC50 [6]: 15.8 nM; EC50 [15]: 251 nM; half-life [16]: < 1 h |
| Cc1ccc(S(=O)(=O)NCCc2ccc(NC[C@@H](C)NC[C@H](O)c3cccc(Cl)c3)cc2)cc1 | 0.5 | 22 | 98 | 28 | 1 | 10 | 20 |  | EC50 [6]: 20 nM |
| C[C@H](CNc1cccc(CC(=O)O)c1)NC[C@H](O)c1cccc(Cl)c1 | 0.2 | 6 | 117 |  |  | 50.1 | > 10000 | 316 | Emax [18]: 80% |
| C[C@H](CNc1ccc(CC(=O)NS(C)(=O)=O)cc1)NC[C@H](O)c1cccc(Cl)c1 | 4 | 30 | 96 | 78 | 20 | 20 | 100 | 5.01 |  |
| Cc1ccc(S(=O)(=O)NC(=O)Cc2ccc(NC[C@@H](C)NC[C@H](O)c3cccc(Cl)c3)cc2)cc1 | 63 | 23 | 98 | 34 | 501 | 79.4 | 631 | 1.26 | concentration at 2.5 h [9]: 42.1 ng/mL; IC50 [10]: 2000 nM; Clp (Canis familiaris): 4.7 mL/min/kg; AUC [19]: 715 ng·h/mL; IC50 [14]: 5010 nM; half-life [16]: 1 h; Vd [17]: 0.2 L/kg |
| C[C@H](CNc1ccccc1)NC[C@H](O)c1cccc(Cl)c1 | 0.5 | 27 | 105 | 100 | 0.3 | 10 | 5.01 | 20 |  |
| C[C@H](CNc1ccc(C(=O)O)cc1)NC[C@H](O)c1cccc(Cl)c1 | 4 | 17 | 79 | 70 | 0.8 | 3160 | 631 | 794 |  |
| C[C@H](CNc1ccc(CCC(=O)O)cc1)NC[C@H](O)c1cccc(Cl)c1 | 16 | 10 | 104 | 22 | 10 | 398 | 251 | 25.1 |  |
| C[C@H](CNc1cccc(CCS(=O)(=O)NS(=O)(=O)c2ccccc2)c1)NC[C@H](O)c1cccc(Cl)c1 | 630 |  |  |  | > 500 |  |  |  | EC50 [20]: 1.58 nM; C [21]: Not Active; Emax [22]: 31%; Emax [23]: 21%; Emax [24]: 113%; EC50 [25]: 1000 nM; half-life [16]: < 1 h |
| C[C@H](CNc1ccc(CC(=O)Nc2nccs2)cc1)NC[C@H](O)c1cccc(Cl)c1 | 6.3 | 14 | 101 | 31 | 2.5 | 7.94 | 3.16 | 1.26 |  |
| C[C@H](CNc1ccc(CNS(C)(=O)=O)cc1)NC[C@H](O)c1cccc(Cl)c1 | 0.4 | 11 | 102 | 66 | 0.4 | 5.01 | 5.01 | 20 |  |
| C[C@H](Cc1ccc(OCC(=O)O)cc1)NC[C@H](O)c1cccc(Cl)c1 |  | 28 |  |  |  |  |  |  | Emax [18]: 80% |
